From patent publication US20180339010A1, “USE OF SHORT SYNTHETIC PEPTIDE FOR THE TREATMENT AND/OR PROPHYLAXIS OF DRY EYE DISEASE” (priority 2015, published 2018)

Columns and labels:
Format in all cases: in vivo, C57BL/6 mice
[1] = tested on: desiccating stressed-mice; assay: Tear production (phenol red thread), prophylactic treatment in desiccating stress-induced dry eye model; details: peptide 100 μM topically three times daily for 14 days in CEC; vehicle control 3.7±0.25
Experimental: (§1) C57BL/6 mice (7-8 weeks old, each weighted about 18 to 25 g) were used in the present study. All mice were maintained in the animal facility in accordance with the procedures approved by Mackay Memorial Hospital Review Board (Taiwan, R.O. C.). All animal experimental procedures were conducted according to the ARVO Statement for the Use of Animals in Ophthalmic and Vision Research.
(§2) Dry eyes were induced by placing mice in a controlled environment chamber (CEC) in accordance with procedures previously described by Barabino et al (IVOS (2005) 46(8), 2766-2771). Mice placed in the CEC were exposed to a relative humidity (RH)<25%, temperature of 20 to 22° C., and airflow of 15 L/min, 12 hours per day. Control mice were kept in a normal environment (RH >50%, no air flow, temperature of 21-23° C.) for the same duration.
Tear production was measured by phenol red-impregnated cotton threads (Zone-Quick; Oasis, Glendora, Calif.). The validity of this test in mice was performed in accordance with procedures previously described by Dursun et al. (IVOS (2002) 43, 632-638). The threads were held with jeweler forceps and placed in the lateral canthus for 60 seconds. The tear production expressed in millimeters of thread wet by the tear and turned red.
(§3) Dry eye was created in mice using a controlled environmental chamber (CEC) in accordance with procedures described in the “material and method” section. Treatment was started on the first day when the mice were housed in CEC, in which the present synthetic peptide (i.e., 7-mer, 100 μM), peptide vehicle (1% CMC), or peptides derived from 7-mer (i.e., 7-mer-ΔD, 7-mer-ΔS, 7-mer (V→L) and 7-mer (VR→QK), 100 μM) were topically administered to eyes three times daily for 14 days. The peptides 7-mer-ΔD (LYRVRS, SEQ ID NO: 6) and 7-mer-ΔS (DLYRVR, SEQ ID NO: 7) represented peptides with one amino acid residue respectively deleted from 5-end (D; Aspartic acid) and 3′-end (S; Serine) of 7-mer, and were used as negative control peptides. In addition, the effects of single and double amino-acid substitution at 7-mer that generate 7-mer (V→L) and 7-mer (VR→QK) were also used to treat dry eye.
The protective effects of 7-mer and its derivatives on DED were also evaluated by measuring tears produced by the test animals, and results are depicted in FIG. 2.

[2] = tested on: desiccating stressed-mice; assay: Corneal fluorescein staining, prophylactic treatment in desiccating stress-induced dry eye (CEC) model; details: for biological function towards DED (summary statement): deletion peptides of SEQ ID NO: 2; for corneal fluorescein staining (score), FIG. 1B: peptide 100 μM topically to eyes three times daily for 14 days, started first day in CEC, 1% CMC vehicle 3.8±0.31
Experimental: as §1, §2
Animals were anesthetized by an intraperitoneal injection of a mixture of zoletil (6 mg/kg) and xylazine (3 mg/kg). Corneal epithelial injury was determined by staining with topical fluorescein (Fluor-I-Strip, Ayerst Laboratories, Philadelphia, Pa.). Corneal fluorescein staining was examined with a slit-lamp biomicroscope under cobalt blue light and photographed with a digital camera. Data is presented as mean±SD. The number of fluorescein staining dots were graded in the 1-mm central cornea zone of each eye, on a standardized five-point scale (0 dot, grade 0; 1-5 dots, grade 1; 6-15 dots, grade 2; 16-30 dots, grade 3; 30 dots, grade 4). One point was added to the score if there was one area of confluent staining, and two points were added for two or more areas of confluence. (Li J et al., Mole Visions 2012, 18, 317)
as §3
Fluorescein staining was used to assess changes in corneal epithelial integrity, and results are illustrated in FIGS. 1A and 1B. FIG. 1A are photographs taken on dry eyes respectively treated with the 1% CMC vehicle, 7-mer and its derivates; and FIG. 1B gives the quantitative analysis of FIG. 1A.

[3] = tested on: desiccating stressed-mice; assay: Corneal fluorescein staining, therapeutic treatment of desiccation stress-induced dry eye; details: 14 days in CEC, then eye drops for 7 days in normal environment (day 21); peptides 100 μM; 1% CMC control 3.6±0.26
Experimental: as §1, §2
Animals were anesthetized by an intraperitoneal injection of a mixture of zoletil (6 mg/kg) and xylazine (3 mg/kg). Corneal epithelial injury was determined by staining with topical fluorescein (Fluor-I-Strip, Ayerst Laboratories, Philadelphia, Pa.). Corneal fluorescein staining was examined with a slit-lamp biomicroscope under cobalt blue light and photographed with a digital camera. Data is presented as mean±SD. […]

[4] = tested on: desiccating stressed-mice; assay: PAS staining of goblet cells in conjunctival epithelium, therapeutic treatment; details: 14 days in CEC, then eye drops for 7 days; for number of goblet cells in PAS-stained sections, observation in words, FIG. 5A: peptides 100 μM
Experimental: as §1, §2
After animals were euthanized, eyes were surgically excised, fixed in 10% formalin, paraffin embedded, and cut into 5-μm sections. […] Statistics
Dry eye was created by housing the test animals in CEC for 14 days in accordance with procedures described in the “material and method” section. After confirmation of signs of DED by fluorescein stain (FIG. 3A; upper panel; day 14), animals were then removed from the CEC and placed in the normal environment (day 15), then started treatment by administering eye drop containing 1% CMC, 1% dexamethasone (Dex), 7-mer (100 μM), or 7-mer (ΔS) (100 μM) for 7 days (FIG. 3A; lower panel; day 21; and FIG. 3B).

[5] = tested on: desiccating stressed-mice; assay: Corneal epithelial histopathology (H&E), detached superficial apical cells, therapeutic treatment; details: 14 days in CEC, then eye drops for 7 days, peptides 100 μM; for detached superficial apical cells on H&E stained cornea sections, observation in words, FIG. 4A: 0.1% Dex; for detached superficial apical cells (number), FIG. 4B: 1% CMC control 14±1.06
Experimental: as §1, §2
The corneal epithelial damage was assessed as described previously (Pflugfelder et al., 2005, Am J Pathol 166, 61-71). In brief, the number of detaching apical cells was counted from a full microscope field-of vision from three separate tissue sections, by two independent masked observers, using a 20 objective. Three mice were evaluated in each treatment
Dry eye was created by housing the test animals in CEC for 14 days in accordance with procedures described in the “material and method” section. After confirmation of signs of DED by fluorescein stain (FIG. […] 3A; lower panel; day 21; and FIG. 3B).

Row | Substance | tear production (thread wet by the tear), FIG. 2 [1] | biological function towards DED (summary statement) [2] | corneal fluorescein staining (score), FIG. 1B [2] | corneal fluorescein staining score, FIG. 3B [3] | number of goblet cells in PAS-stained sections, observation in words, FIG. 5A [4] | detached superficial apical cells on H&E stained cornea sections, observation in words, FIG. 4A [5] | detached superficial apical cells (number), FIG. 4B [5] | goblet cells (number), FIG. 5B ([4]; 7-mer 100 μM, 1% CMC control 7.5±0.96)
1 | DLYRQKS [7-mer (VR→QK), NH2-Asp-Leu-Tyr-Arg-Gln-Lys-Ser-COOH] | 4.9±0.15 millimeters | – | – | – | – | – | – | –
2 | LYRVRS [7-mer (ΔD), negative control peptide, 7-mer with N-terminal aspartate deleted] | neither 7-mer (ΔD) nor 7-mer (ΔS) peptides possessed such effect | do not possess any biological function towards DED | no such effect | – | – | – | – | –
3 | DLYRVR [7-mer (ΔS), negative control peptide, 7-mer with C-terminal serine deleted] | neither 7-mer (ΔD) nor 7-mer (ΔS) peptides possessed such effect | do not possess any biological function towards DED | no such effect | no therapeutic effect | significant reduction in the number of goblet cells | Detached superficial apical cells were identified | 13.8±1.03 | –
4 | DLYRVRS [7-mer, NH2-Asp-Leu-Tyr-Arg-Val-Arg-Ser-COOH] | 5.1±0.21 millimeters | – | 1.3±0.21 | 1.5±0.18 | relatively the same as that of the normal healthy mice | no detached cells were found | 2.1±0.37 | 12.7±1.28
5 | DLYRLRS [7-mer (V→L), NH2-Asp-Leu-Tyr-Arg-Leu-Arg-Ser-COOH] | 5.0±0.16 millimeters | – | – | – | – | – | – | –
